Drawing on patent publication US8053553B2, “Targeting host proteinases as a therapeutic strategy against viral and bacterial pathogens” (Socpra Sciences Sante Et Humaines, priority 2007, dated 2011), this text covers Ki for nine compounds.

Residues, ends and D or L forms follow the SMILES beside them. Bounds are passed on as bounds.

The assay has as its target T1, furin (Homo sapiens, UniProt P09958).
T1 construct: made in house; host or cells: Drosophila S2 cells (Invitrogen expression system)
Description: biochemical. As to conditions: furin, Pyr-RTKR-AMC substrate; optimization of the inhibitory peptides (Table 3); read-out: Ki.

T1 sequence (P09958 108-794 limits assumed): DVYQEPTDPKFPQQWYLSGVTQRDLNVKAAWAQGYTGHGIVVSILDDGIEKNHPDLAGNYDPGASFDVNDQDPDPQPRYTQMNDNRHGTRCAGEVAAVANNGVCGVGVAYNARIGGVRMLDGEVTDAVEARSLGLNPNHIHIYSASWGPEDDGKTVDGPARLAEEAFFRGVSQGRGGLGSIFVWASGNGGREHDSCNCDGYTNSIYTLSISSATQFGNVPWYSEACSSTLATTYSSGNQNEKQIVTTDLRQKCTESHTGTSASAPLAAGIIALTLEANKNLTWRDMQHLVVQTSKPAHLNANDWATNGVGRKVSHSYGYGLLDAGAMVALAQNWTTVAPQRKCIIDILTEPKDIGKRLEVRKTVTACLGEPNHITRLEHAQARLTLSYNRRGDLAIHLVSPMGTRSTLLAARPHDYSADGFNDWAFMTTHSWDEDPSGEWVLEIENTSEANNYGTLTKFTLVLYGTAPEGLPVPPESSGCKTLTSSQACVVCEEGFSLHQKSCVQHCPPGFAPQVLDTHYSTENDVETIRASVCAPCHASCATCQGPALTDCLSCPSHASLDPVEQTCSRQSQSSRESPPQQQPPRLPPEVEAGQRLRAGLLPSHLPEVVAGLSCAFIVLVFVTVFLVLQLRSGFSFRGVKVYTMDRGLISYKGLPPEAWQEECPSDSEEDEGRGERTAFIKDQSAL

What is called Ki is the dissociation constant of the complex between target and ligand, obtained from inhibition or displacement. As for `C[C@H](NC(=O)[C@H](CCCNC(=N)N)NC(=O)[C@H](CCC(N)=O)NC(=O)[C@@H]1CCCN1C(=O)[C@@H](N)[C@@H](C)O)C(=O)N[C@@H](CCCNC(=N)N)C(=O)N[C@@H](CCCNC(=N)N)C(=O)N[C@@H](CCCNC(=N)N)C(=O)N[C@@H](CCCCN)C(=O)N[C@@H](CCCCN)C(=O)N[C@@H](CCCNC(=N)N)C(=O)N[C@@H](CCCCN)C(N)=O` (H-TPQRARRRKKRK-NH2), the Ki was greater than 100 nM. Turning to `CC(C)C[C@H](NC(=O)[C@H](CCCNC(=N)N)NC(=O)[C@H](CCCCN)NC(=O)[C@H](CCCCN)NC(=O)[C@H](CCCNC(=N)N)NC(=O)[C@H](CCCNC(=N)N)NC(=O)[C@H](CCCNC(=N)N)NC(=O)[C@H](C)NC(=O)[C@H](CCCNC(=N)N)NC(=O)[C@H](CCC(N)=O)NC(=O)[C@@H]1CCCN1C(=O)[C@@H](N)[C@@H](C)O)C(N)=O` (H-TPQRARRRKKRL-NH2), the Ki is greater than 100 nM.

With `CSCC[C@H](NC(=O)[C@H](CCCNC(=N)N)NC(=O)[C@H](CCCCN)NC(=O)[C@H](CCCCN)NC(=O)[C@H](CCCNC(=N)N)NC(=O)[C@H](CCCNC(=N)N)NC(=O)[C@H](CCCNC(=N)N)NC(=O)[C@H](C)NC(=O)[C@H](CCCNC(=N)N)NC(=O)[C@H](CCC(N)=O)NC(=O)[C@@H]1CCCN1C(=O)[C@@H](N)[C@@H](C)O)C(N)=O` (H-TPQRARRRKKRM-NH2), the Ki was 58 nM. To `C[C@H](NC(=O)[C@H](CCCNC(=N)N)NC(=O)[C@H](CCC(N)=O)NC(=O)[C@@H]1CCCN1C(=O)[C@@H](N)[C@@H](C)O)C(=O)N[C@@H](CCCNC(=N)N)C(=O)N[C@@H](CCCNC(=N)N)C(=O)N[C@@H](CCCNC(=N)N)C(=O)N[C@@H](CCCCN)C(=O)N[C@@H](CCCCN)C(=O)N[C@@H](CCCNC(=N)N)C(=O)N[C@@H](CC(N)=O)C(N)=O` (H-TPQRARRRKKRN-NH2) belongs greater than 100 nM. Consider `C[C@H](NC(=O)[C@H](CCCNC(=N)N)NC(=O)[C@H](CCC(N)=O)NC(=O)[C@@H]1CCCN1C(=O)[C@@H](N)[C@@H](C)O)C(=O)N[C@@H](CCCNC(=N)N)C(=O)N[C@@H](CCCNC(=N)N)C(=O)N[C@@H](CCCNC(=N)N)C(=O)N[C@@H](CCCCN)C(=O)N[C@@H](CCCCN)C(=O)N[C@@H](CCCNC(=N)N)C(=O)N1CCC[C@H]1C(N)=O` (H-TPQRARRRKKRP-NH2), for which the Ki was greater than 100 nM.

For the compound `C[C@H](NC(=O)[C@H](CCCNC(=N)N)NC(=O)[C@H](CCC(N)=O)NC(=O)[C@@H]1CCCN1C(=O)[C@@H](N)[C@@H](C)O)C(=O)N[C@@H](CCCNC(=N)N)C(=O)N[C@@H](CCCNC(=N)N)C(=O)N[C@@H](CCCNC(=N)N)C(=O)N[C@@H](CCCCN)C(=O)N[C@@H](CCCCN)C(=O)N[C@@H](CCCNC(=N)N)C(=O)N[C@@H](CCC(N)=O)C(N)=O` (H-TPQRARRRKKRQ-NH2), the Ki is greater than 100 nM. For `C[C@H](NC(=O)[C@H](CCCNC(=N)N)NC(=O)[C@H](CCC(N)=O)NC(=O)[C@@H]1CCCN1C(=O)[C@@H](N)[C@@H](C)O)C(=O)N[C@@H](CCCNC(=N)N)C(=O)N[C@@H](CCCNC(=N)N)C(=O)N[C@@H](CCCNC(=N)N)C(=O)N[C@@H](CCCCN)C(=O)N[C@@H](CCCCN)C(=O)N[C@@H](CCCNC(=N)N)C(=O)N[C@@H](CCCNC(=N)N)C(N)=O` (H-TPQRARRRKKRR-NH2), the Ki is greater than 100 nM. In the case of `C[C@H](NC(=O)[C@H](CCCNC(=N)N)NC(=O)[C@H](CCC(N)=O)NC(=O)[C@@H]1CCCN1C(=O)[C@@H](N)[C@@H](C)O)C(=O)N[C@@H](CCCNC(=N)N)C(=O)N[C@@H](CCCNC(=N)N)C(=O)N[C@@H](CCCNC(=N)N)C(=O)N[C@@H](CCCCN)C(=O)N[C@@H](CCCCN)C(=O)N[C@@H](CCCNC(=N)N)C(=O)N[C@@H](CO)C(N)=O` (H-TPQRARRRKKRS-NH2), the Ki was greater than 100 nM. In the case of `C[C@H](NC(=O)[C@H](CCCNC(=N)N)NC(=O)[C@H](CCC(N)=O)NC(=O)[C@@H]1CCCN1C(=O)[C@@H](N)[C@@H](C)O)C(=O)N[C@@H](CCCNC(=N)N)C(=O)N[C@@H](CCCNC(=N)N)C(=O)N[C@@H](CCCNC(=N)N)C(=O)N[C@@H](CCCCN)C(=O)N[C@@H](CCCCN)C(=O)N[C@@H](CCCNC(=N)N)C(=O)N[C@H](C(N)=O)[C@@H](C)O` (H-TPQRARRRKKRT-NH2) it was 33 nM.
